Results from patent US20100086483A1, “METHOD OF MULTIDETECTOR COMPUTED TOMAGRAPHY” (Gilead Palo Alto, Inc., priority 2008, published 2010).

Experiments:
conscious dogs = experiment: Effects of caffeine on regadenoson-induced coronary vasodilation and changes in hemodynamics in conscious dogs (Part II); type: in vivo, dog; details: for duration of 2-fold increase in CBF / maximum CBF: time control group, 4 dogs
Procedure: Sixteen chronically instrumented male mongrel dogs weighing from 22-30 kg were used in the study. The animal protocol was approved by the Institutional Animal Care and Use Committee of New York Medical College and conforms to the Guide for the Care and Use of Laboratory Animal by the United States National Institutes of Health.
Dogs were sedated with acepromazine (0.3 mg/kg, IM) and anesthetized with pentobarbital sodium (25 mg/kg, IV). After intubation, dogs were artificially ventilated with room air. A thoracotomy was made in the fifth intercostal space using sterile techniques. A Tygon catheter (Cardiovascular Instruments, Wakefield, Mass.) was inserted into the descending thoracic aorta and another one was inserted into the left atrium. In 9 dogs, an ultrasound flow transducer (Transonic Systems, Ithaca, N.Y.) was placed around the left circumflex coronary artery. A solid-state pressure gauge (P6.5, Konisberg Instruments, Pasadena, Calif.) was placed into the left ventricle through the apex. The chest was closed in layers. The catheters and wires were tunneled subcutaneously and externalized through the skin at the back of the dog's neck. Dogs were allowed to recover from the surgery before experiments were performed, and were trained to lie on a table.
Phasic arterial pressure was measured by connecting the aortic catheter to a strain gauge transducer (P23 ID, LDS Test and Measurement, Valley View, Ohio). Left ventricular pressures were measured by the solid pressure gauge. CBF (mL/min) was measured from an ultrasound flow transducer using a Transonic flowmeter (T206, Transonic Systems, Ithaca, N.Y.). Two indices were used to describe the regadenoson-induced coronary vasodilation: 1) the maximum increase in CBF and 2) the duration of the 2-fold increase in CBF (the period of time that CBF was elevated to a level ≧2-fold of baseline CBF). All pressure and flow data were acquired and analyzed using a Ponemah System (Version 3.30 or 4.20, LDS Test and Measurement, Valley View, Ohio). MAP and HR were calculated from phasic blood pressure, and LV dP/dtMax was calculated from the left ventricular systolic pressure.
On the day of an experiment, a dog was placed on a table, where it lay quietly during the experiment. A catheter was inserted into a peripheral vein in the leg and attached to an infusion line to administer drugs without disturbing the dog. The experiment was begun after MAP, HR and CBF were stable.
Each dog received an IV injection of 5 μg/kg of regadenoson. […] LVSP, LV dP/dtMax, MAP, HR and CBF were recorded continuously. Blood samples were taken from the left atrial catheter at 1, 3, 5, 15, 30, 45 and 60 min following injections of regadenoson.
In 4 dogs, two doses of regadenoson (5 μg/kg, IV) were given 90 min apart (without blood sampling) to determine if there is tachyphylaxis of regadenoson-induced coronary vasodilation.
The statistical significance of a difference between the value of a parameter at baseline and at the indicated time point after drug administration was determined using a One-Way Repeated Measures ANOVA followed by Tukey's Test. […] Results with p<0.05 were considered to be significant. […] All data are presented as Mean±SEM.

normal subjects = experiment: Safety and tolerability of regadenoson with and without prior caffeine; type: in vivo, human
Procedure: 15O water was used as the radionuclide in the PET scans. There was a 1- to 14-day washout period between dosing days. Blood samples and measures of safety were collected until 120 minutes after study drug administration.
Safety measures included adverse events (AEs), serious adverse events, vital signs (HR and BP), ECG, concomitant medications, and a tolerability questionnaire. All available data from subjects who received the single dose of regadenoson were to be included in the statistical summaries.
ECG intervals and changes from baseline values in ECG intervals were to be presented, as were occurrences of rhythm or conduction abnormalities. Concomitant medication usage was to be summarized.
Tolerability questionnaire responses were to be analyzed using the Wilcoxen rank sum test (“How did you feel?” question) and the exact Cochran-Mantel-Haenszel test (Day 2-only question “How did this test compare to the first test?”).

[1] = regadenoson 5 μg/kg IV without caffeine (control of caffeine 4 mg/kg group), 5 min
[2] = regadenoson 5 μg/kg IV without caffeine (control of caffeine 4 mg/kg group), 10 min
[3] = regadenoson 5 μg/kg IV without caffeine (control of caffeine 4 mg/kg group), 15 min
[4] = regadenoson 5 μg/kg IV without caffeine (control of caffeine 4 mg/kg group), 20 min
[5] = regadenoson 5 μg/kg IV without caffeine (control of caffeine 10 mg/kg group), 0.5 min
[6] = regadenoson 5 μg/kg IV without caffeine (control of caffeine 10 mg/kg group), 1 min
[7] = regadenoson 5 μg/kg IV without caffeine (control of caffeine 10 mg/kg group), 2 min
[8] = regadenoson 5 μg/kg IV without caffeine (control of caffeine 10 mg/kg group), 3 min
[9] = regadenoson 5 μg/kg IV without caffeine (control of caffeine 10 mg/kg group), 4 min
[10] = regadenoson 5 μg/kg IV without caffeine (control of caffeine 10 mg/kg group), 5 min
[11] = regadenoson 5 μg/kg IV without caffeine (control of caffeine 10 mg/kg group), 10 min
[12] = regadenoson 5 μg/kg IV without caffeine (control of caffeine 10 mg/kg group), 15 min
[13] = regadenoson 5 μg/kg IV without caffeine (control of caffeine 10 mg/kg group), 20 min
[14] = regadenoson 5 μg/kg IV, absence of caffeine, n=8
[15] = regadenoson 5 μg/kg IV, absence of caffeine, n=9
[16] = first injection of regadenoson 5 μg/kg IV
[17] = second injection of regadenoson 5 μg/kg IV 90 min later
[18] = regadenoson 400 μg IV, 25/43 subjects

Structure (SMILES): CNC(=O)c1cnn(-c2nc(N)c3ncn([C@@H]4O[C@H](CO)[C@@H](O)[C@H]4O)c3n2)c1 [Regadenoson, (1-{9-[(4S,2R,3R,5R)-3,4-dihydroxy-5-(hydroxymethyl)oxolan-2-yl]-6-aminopurin-2-yl}pyrazol-4-yl)-N-methylcarboxamide]
- HR (conscious dogs; [1]): 128 ± 7 bpm
- MAP (conscious dogs; [1]): 100 ± 2 mm Hg
- HR (conscious dogs; [2]): 113 ± 5 bpm
- MAP (conscious dogs; [2]): 100 ± 2 mm Hg
- HR (conscious dogs; [3]): 102 ± 6 bpm
- MAP (conscious dogs; [3]): 101 ± 4 mm Hg
- HR (conscious dogs; [4]): 101 ± 6 bpm
- MAP (conscious dogs; [4]): 102 ± 4 mm Hg
- HR (conscious dogs; [5]): 149 ± 15 bpm
- MAP (conscious dogs; [5]): 93 ± 3 mm Hg
- HR (conscious dogs; [6]): 144 ± 7 bpm
- MAP (conscious dogs; [6]): 86 ± 4 mm Hg
- HR (conscious dogs; [7]): 148 ± 5 bpm
- MAP (conscious dogs; [7]): 89 ± 4 mm Hg
- HR (conscious dogs; [8]): 135 ± 4 bpm
- MAP (conscious dogs; [8]): 89 ± 4 mm Hg
- HR (conscious dogs; [9]): 130 ± 5 bpm
- MAP (conscious dogs; [9]): 92 ± 4 mm Hg
- HR (conscious dogs; [10]): 127 ± 6 bpm
- MAP (conscious dogs; [10]): 92 ± 4 mm Hg
- HR (conscious dogs; [11]): 105 ± 4 bpm
- MAP (conscious dogs; [11]): 95 ± 4 mm Hg
- HR (conscious dogs; [12]): 98 ± 3 bpm
- MAP (conscious dogs; [12]): 93 ± 6 mm Hg
- HR (conscious dogs; [13]): 99 ± 7 bpm
- MAP (conscious dogs; [13]): 98 ± 5 mm Hg
- peak increase in LV dP/dtMax from baseline (conscious dogs; regadenoson 5 μg/kg IV, absence of caffeine): 65±7%
- duration of the 2-fold increase in CBF (conscious dogs; [14]): 515 ± 71 s
- peak CBF (conscious dogs; [14]): 191 ± 7 mL/min
- peak decrease in LVSP from baseline (conscious dogs; [14]): 9±1%
- peak decrease in MAP from baseline (conscious dogs; [15]): 15±2%
- peak increase in HR from baseline (conscious dogs; [15]): 114±14%
- duration of 2-fold increase in CBF (conscious dogs; [16]): 401 ± 45 s
- maximum CBF (conscious dogs; [16]): 178 ± 17 mL/min
- duration of 2-fold increase in CBF (conscious dogs; [17]): 395 ± 43 s
- maximum CBF (conscious dogs; [17]): 176 ± 6 mL/min
- differences in baseline CBF, maximum CBF or duration of 2-fold increase in CBF between two injections (tachyphylaxis) (conscious dogs; two injections of regadenoson 5 μg/kg IV 90 min apart): no statistically significant differences
- AE sensation of heaviness, percentage of subjects (normal subjects; regadenoson 400 μg IV): 28%
- QTc prolongation (>500 msec and change of >60 msec) by ECG analysis after regadenoson dosing (normal subjects; regadenoson 400 μg IV): one subject
- first degree AV block by ECG analysis after regadenoson dosing (normal subjects; regadenoson 400 μg IV): one subject
- deaths or SAEs (normal subjects; regadenoson 400 μg IV with and without caffeine): no reported deaths or SAEs
- patients with at least one AE considered possibly related to regadenoson treatment (normal subjects; regadenoson 400 μg IV, 1/43): 2%
- AEs: ear and labyrinth disorders, percentage of subjects (normal subjects; regadenoson 400 μg IV, 1/43 subjects): 2%
- AEs: gastrointestinal disorders, percentage of subjects (normal subjects; regadenoson 400 μg IV, 2/43 subjects): 5%
- subjects with at least one AE with a maximum severity of severe (normal subjects; regadenoson 400 μg IV, 4/43): 9%
- AE paraesthesia, percentage of subjects (normal subjects; regadenoson 400 μg IV, 8/43): 19%
- AEs: general disorders and administration site conditions, percentage of subjects (normal subjects; regadenoson 400 μg IV, 11/43 subjects): 26%
- AE headache, percentage of subjects (normal subjects; regadenoson 400 μg IV, 12/43): 28%
- AEs: musculoskeletal and connective tissue disorders, percentage of subjects (normal subjects; regadenoson 400 μg IV, 12/43 subjects): 28%
- AE flushing, percentage of subjects (normal subjects; regadenoson 400 μg IV, 13/43): 30%
- AEs: vascular disorders, percentage of subjects (normal subjects; regadenoson 400 μg IV, 13/43 subjects): 30%
- AEs: nervous system disorders, percentage of subjects (normal subjects; regadenoson 400 μg IV, 18/43 subjects): 42%
- AE palpitations, percentage of subjects (normal subjects; regadenoson 400 μg IV, 21/43): 49%
- subjects with at least one AE with a maximum severity of moderate (normal subjects; regadenoson 400 μg IV, 21/43): 49%
- AE dyspnoea, percentage of subjects (normal subjects; regadenoson 400 μg IV, 24/43): 56%
- AEs: cardiac disorders, percentage of subjects (normal subjects; [18]): 58%
- AEs: respiratory, thoracic and mediastinal disorders, percentage of subjects (normal subjects; [18]): 58%
- subjects with at least one AE with a maximum severity of mild (normal subjects; regadenoson 400 μg IV, forty percent): 17/43
- subjects with at least one AE considered probably related to regadenoson treatment (normal subjects; regadenoson 400 μg IV, ninety-five percent): 41/43
